# Test results as given in ChEMBL document CHEMBL1166001, “Manadoperoxides A-D from the Indonesian sponge Plakortis cfr. simplex. Further insights on the structure-activity relationships of simple 1,2-dioxane antimalarials” (J Nat Prod, 2010).
# Assays:
# Plasmodium falciparum [1] = assay: Antimalarial activity against chloroquine-resistant Plasmodium falciparum W2 after 72 hrs by parasite LDH assay; assay type: functional, organism-based; details: W2, 72 h
# Plasmodium falciparum [2] = assay: Antimalarial activity against chloroquine-sensitive Plasmodium falciparum D10 after 72 hrs by parasite LDH assay; assay type: functional, organism-based; details: D10, 72 h
Structure (SMILES),IC50 (Plasmodium falciparum [1]) [µM],IC50 (Plasmodium falciparum [2]) [µM]
C/C=C(C)/C=C/CCC[C@]1(OC)C[C@H](C)[C@H](CC(=O)OC)OO1 [MANADOPEROXIDE A],3.74,6.88
CC/C=C(C)/C=C/CCC[C@]1(OC)C[C@H](C)[C@H](CC(=O)OC)OO1 [MANADOPEROXIDE B],3.69,6.76
COC(=O)C[C@@H]1OO[C@@](CCC/C=C/C(C)=O)(OC)C[C@@H]1C [MANADOPEROXIDE C],2.33,4.54
COC(=O)C[C@@H]1OO[C@@](CCC[C@H](O)/C=C(\C)[C@H](C)O)(OC)C[C@@H]1C [MANADOPEROXIDE D],7.93,10.4
CC/C=C/[C@H](CC)C[C@@]1(C)C[C@@H](CC)[C@@H](CC(=O)OC)OO1 [PLAKORTIN],0.39,–
